System: asymmetric di-methyl PABP1 in RKO cells
Assay: RKO methylation assay, In Cell Western (ICW) for asymmetric di-methyl PABP1
Assay type: cell-based
Conditions: Homo sapiens, RKO, Cellular potencies, ICW PABP1me2a
Source text: RKO adherent cells were purchased from ATCC (American Type Culture Collection), Manassas, Va., USA. DMEM/Glutamax medium, penicillin-streptomycin, heat inactivated fetal bovine serum, 0.05% trypsin and D-PBS were purchased from Life Technologies, Grand Island, N.Y., USA. Odyssey blocking buffer, 800 CW goat anti-rabbit IgG (H+L) antibody, and Licor Odyssey infrared scanner were purchased from Licor Biosciences, Lincoln, Nebr., USA. Asymmetric di-methyl PABP1 antibody was purchased from Cell Signaling Technology, Danvers, Mass., USA. Methanol was purchased from VWR, Franklin, Mass., USA. 10% Tween 20 was purchased from KPL, Inc., Gaithersburg, Md., USA. Paraformaldehyde (PFA) was purchased from EM Sciences. DRAQ5 was purchased from Biostatus Limited, Leicestershire, UK.
RKO adherent cells were maintained in growth medium (DMEM/Glutamax medium supplemented with 10% v/v heat inactivated fetal bovine serum and 100 units/mL penicillin-streptomycin) and cultured at 37° C. under 5% CO2.
Cell treatment, In Cell Western (ICW) for detection of asymmetric di-methyl PABP1 and DNA content: RKO cells were seeded in assay medium at a concentration of 30,000 cells per mL to a poly-D-lysine coated 384 well culture plate (BD Biosciences 356697) with 50 VL per well. Compound (100 nL) from a 96-well source plate was added directly to 384 well cell plate. Plates were incubated at 37° C., 5% CO2 for 48 hours. After two days of incubation, plates were brought to room temperature outside of the incubator for ten minutes and blotted on paper towels to remove cell media. Cells were fixed for 20 minutes at room temperature by adding 50 ul of 8% PFA followed by aspiration of supernatant with the Biotek EL406 plate washer. Cells were then permeabilized by addition of 50 μL of ice cold 100% methanol directly to each well and incubated for 30 min at room temperature. After 30 min, plates were transferred to a Biotek EL406 plate washer and washed 2 times with 100 μL per well of wash buffer (1×PBS). Next 60 μL per well of Odyssey blocking buffer (Odyssey Buffer with 0.1% Tween 20 (v/v)) were added to each plate and incubated 1 hour at room temperature. Blocking buffer was removed and 20 μL per well of primary antibody was added (asymmetric-methyl PABP1) diluted 1:400 in Odyssey buffer with 0.1% Tween 20 (v/v)) and plates were incubated overnight (16 hours) at 4° C. Plates were washed 5 times with 100 μL per well of wash buffer. Next 20 μL per well of secondary antibody was added (1:800 800 CW goat anti-rabbit IgG (H+L) antibody, 1:2000 DRAQ5 in Odyssey buffer with 0.1% Tween 20 (v/v)) and incubated for 1 hour at room temperature. The plates were washed 5 times with 100 μL per well wash buffer then 2 times with 100 μL per well of water. Plates were allowed to dry at room temperature then imaged on the Licor Odyssey machine which measures integrated intensity at 700 nm and 800 nm wavelengths. Both 700 and 800 channels were scanned.
First, the ratio for each well was determined by:
Each plate included fourteen control wells of DMSO only treatment (minimum inhibition) as well as fourteen control wells for maximum inhibition treated with 20 μM of a reference compound. The average of the ratio values for each control type was calculated and used to determine the percent […] for each test well in the plate. Reference compound was serially diluted three-fold in DMSO for a total of nine test concentrations, beginning at 20 μM.
Percent inhibition was determined and IC50 curves were generated using triplicate wells per concentration of compound. […]

| Compound | IC50 |
| --- | --- |
| CCOC(=O)N1CCOC[C@H]1CNc1nc(-c2cc(OC[C@@H](O)CNC)ccc2Cl)nc(-c2c(C)noc2C)c1C [Example 24-3] | < 5 µM |
| CNC[C@@H](O)COc1ccc(Cl)c(-c2nc(N[C@H]3CCN(C(=O)OC)[C@H](C)C3)c(C)c(-c3c(C)noc3C)n2)c1 [Example 102-3] | < 5 µM |
| CNCC(O)COc1cccc(-c2nc(N[C@@H]3CCOC3)c(C)c(-c3ccc(OC)nc3)n2)c1 (stereo partly shown) [Example 408-1a] | 5 to 10 µM |
| CNCC(O)COc1cccc(-c2nc(-c3c(C)noc3C)c(C)c(N3CCO[C@@H](CN(C)C)C3)n2)c1 (stereo partly shown) [Example 148-1a] | < 5 µM |
| CNCC(O)COc1cccc(-c2nc(N[C@@H]3CCOC3=O)c(C)c(-c3c(C)noc3C)n2)c1 (stereo partly shown) [Example 291-1a] | 10 to 20 µM |
| CNCC(O)COc1cccc(-c2nc(N[C@@H]3CCOC3)c(C)c(-c3ccncc3)n2)c1 (stereo partly shown) [Example 332-1a] | 10 to 20 µM |
| CNCC(O)COc1cccc(-c2nc(-c3ccc(S(C)(=O)=O)cc3)cc(N(C)C3CCOCC3)n2)c1 (stereo not shown) [Example 499-1a] | < 5 µM |
| CNCC(O)COc1cccc(-c2nc(N[C@@H]3CCOC3)c(C)c(N3CCN(S(C)(=O)=O)CC3)n2)c1 (stereo partly shown) [Example 434-1a] | < 5 µM |
| CNCC(O)COc1cccc(-c2nc(N[C@@H]3CCOC3)c(C)c(N3CCN(C(C)=O)C(C)(C)C3)n2)c1 (stereo partly shown) [Example 439-1a] | 5 to 10 µM |
| CNCC(O)COc1cccc(-c2nc(NC3CN(CC(F)F)C3)c(C)c(-c3c(C)noc3C)n2)c1 (stereo not shown) [Example 237-1a] | 10 to 20 µM |
| CNCC(O)COc1cccc(-c2nc(-c3c(C)noc3C)cc(N3CCN(C(=O)OC)CC3)n2)c1 (stereo not shown) [Example 81-1a] | < 5 µM |
| CNCC(O)COc1cccc(-c2nc(N3CC4(CCNCC4)c4ccccc43)cc(N(C)C3CCOCC3)n2)c1 (stereo not shown) [Example 559-1a] | 10 to 20 µM |
| CNCC(O)COc1cccc(-c2nc(-c3c(C)noc3C)c(C)c(N3CCC[C@@H](NC)C3)n2)c1 (stereo partly shown) [Example 177-1a] | 5 to 10 µM |
| CNCC(O)COc1cccc(-c2nc(-c3c(C)noc3C)c(C)c(N3CCN(C(=O)C(F)F)CC3)n2)c1 (stereo not shown) [Example 107-1a] | < 5 µM |
| CC[C@@H]1CN(c2nc(-c3cccc(OCC(O)CNC)c3)nc(-c3c(C)noc3C)c2C)CCN1S(C)(=O)=O (stereo partly shown) [Example 153-1a] | < 5 µM |
| CNCC(O)COc1cccc(-c2nc(N[C@@H]3CCOC3)c(C)c(N3CCC[C@H]4CN(Cc5ccccc5)C[C@H]43)n2)c1 (stereo partly shown) [Example 378-1a] | 10 to 20 µM |
| CNCC(O)COc1cccc(-c2nc(N[C@@H]3CCNC[C@@H]3F)c(C)c(-c3c(C)noc3C)n2)c1 (stereo partly shown) [Example 224-1a] | < 5 µM |
| CNCC(O)COc1cccc(-c2nc(-c3cn(C)c4ncncc34)cc(N(C)C3CCOCC3)n2)c1 (stereo not shown) [Example 485-1a] | < 5 µM |

| Compound | IC50 |
| --- | --- |
| CNCC(O)COc1ccc(Cl)c(-c2nc(NC3CC(O)(C(F)(F)F)C3)c(C)c(-c3c(C)noc3C)n2)c1 (stereo not shown) [Example 38-3] | < 5 µM |
| CNCC(O)COc1cccc(-c2nc(-c3c(C)noc3C)cc(N3CCN(C(C)=O)C4(CC4)C3)n2)c1 (stereo not shown) [Example 70-1a] | < 5 µM |
| CNCC(O)COc1cccc(-c2nc(N[C@H]3C[C@H](O)C3)cc(-c3c(C)noc3C)n2)c1 (stereo partly shown) [Example 43-1a] | 10 to 20 µM |
| CNCC(O)COc1cccc(-c2nc(N[C@@H]3CCOC3)c(C)c(N3CCn4ccnc4C3)n2)c1 (stereo partly shown) [Example 359-1a] | 10 to 20 µM |
| CNCC(O)COc1cccc(-c2nc(-c3c(C)noc3C)c(F)c(N3CCN(C(=O)OC)CC3)n2)c1 (stereo not shown) [Example 97-1a] | < 5 µM |
| CNCC(O)COc1cccc(-c2nc(-c3c(C)noc3C)cc(-c3cnc4cnccn34)n2)c1 (stereo not shown) [Example 112-1a] | 10 to 20 µM |
| CNCC(O)COc1cc(Cl)cc(-c2nc(-c3cnn(C)c3)cc(N(C)C3CCOCC3)n2)c1 (stereo not shown) [Example 610-1a] | 10 to 20 µM |
| CNCC(O)COc1cc(Cl)cc(-c2nc(Nc3cncnc3)c(C)c(N(C)C3CCOCC3)n2)c1 (stereo not shown) [Example 506-1a] | < 5 µM |
| CNCC(O)COc1ccc(Cl)c(-c2nc(NC3CC4(CCN(C(=O)OC)CC4)C3)c(C)c(-c3c(C)noc3C)n2)c1 (stereo not shown) [Example 37-3] | < 5 µM |
| CNCC(O)COc1cccc(-c2nc(-c3c(C)noc3C)c(C)c(N3CC(NC(=O)N(C)C)C3)n2)c1 (stereo not shown) [Example 13-3] | < 5 µM |
| CNCC(O)COc1cccc(-c2nc(N[C@@H]3CCOC3)c(C)c(N3CCC(n4nc(C)cc4C)C3)n2)c1 (stereo partly shown) [Example 468-1a] | 5 to 10 µM |
| CNCC(O)COc1cccc(-c2nc(-c3cnc4n3CCNC4)cc(N(C)C3CCOCC3)n2)c1 (stereo not shown) [Example 563-1a] | 10 to 20 µM |
| CCOC(=O)N1CC(Nc2nc(-c3cccc(OCC(O)CNC)c3)nc(-c3c(C)noc3C)c2C)C1 (stereo not shown) [Example 238-1a] | 10 to 20 µM |
| CNCC(O)COc1cccc(-c2nc(N[C@@H]3CCOC3)c(C)c(-n3nc(C)cc3C)n2)c1 (stereo partly shown) [Example 382-1a] | 10 to 20 µM |
| CNCC(O)COc1cc(Cl)cc(-c2nc(-c3c(C)noc3C)cc(-c3c(C)noc3C)n2)c1 (stereo not shown) [Example 4-1a] | 10 to 20 µM |
| CNCC(O)COc1cccc(-c2nc(-c3c(C)noc3C)cc(N3CCNC(C(F)(F)F)C3)n2)c1 (stereo not shown) [Example 131-1a] | < 5 µM |
| CNCC(O)COc1cccc(-c2nc(NC3CCOC3)c(C)c(N3CCN(C(=O)OC)C(C)(C)C3)n2)c1 (stereo not shown) [Example 447-1a] | 10 to 20 µM |
| CNCC(O)COc1cccc(-c2nc(N[C@H]3CC[C@H](O)C3)c(C)c(-c3c(C)noc3C)n2)c1 (stereo partly shown) [Example 135-1a] | < 5 µM |

Now from value to molecule:

| IC50 | Compound |
| --- | --- |
| < 5 µM | CCN1CCC(Nc2nc(-c3cc(OC[C@H](O)CNC)ccc3Cl)nc(-c3c(C)noc3C)c2C)C(F)(F)C1 (stereo partly shown) [Example 291-3] |
| < 5 µM | CNC[C@@H](O)COc1ccc(F)c(-c2nc(-c3c(C)noc3C)cc(N3Cc4cnn(C)c4C3)n2)c1 [Example 275-3] |
| < 5 µM | CNC[C@H](O)COc1ccc(Cl)c(-c2nc(N[C@H]3CCN(C(=O)OC)[C@H](C)C3)c(C)c(-c3c(C)noc3C)n2)c1 [Example 103-3] |
| < 5 µM | CNC[C@@H](O)COc1ccc(Cl)c(-c2nc(-c3c(C)noc3C)c(C)c(C3CCOCC3)n2)c1 [Example 268-3] |
| < 5 µM | CNC[C@@H](O)COc1ccc(Cl)c(-c2nc(N[C@H]3CCN(C4CC4)C[C@H]3F)c(Cl)c(-c3c(C)noc3C)n2)c1 [Example 195-3] |
| < 5 µM | CNC[C@@H](O)COc1ccc(F)c(-c2nc(-c3c(C)noc3C)c(C)c(N3CC4(CCN(C(=O)OC(C)C)CC4)C3)n2)c1 [Example 281-3] |
| < 5 µM | CCOC(=O)N1CCCC[C@@H]1CNc1nc(-c2cc(OC[C@H](O)CNC)ccc2Cl)nc(-c2c(C)noc2C)c1C [Example 154-3] |
| < 5 µM | CNC[C@@H](O)COc1ccc(Cl)c(-c2nc(NC[C@H]3CCOC3)c(C)c(-c3c(C)noc3C)n2)c1 [Example 233-3] |
| < 5 µM | CNC[C@@H](O)COc1ccc(Cl)c(-c2nc(-c3c(C)noc3C)c(C)c(N3Cc4cc(Br)cnc4C3)n2)c1 [Example 248-3] |
| < 5 µM | CCO[C@@H]1CCC[C@H]1N(CC)c1nc(-c2cc(OC[C@H](O)CNC)ccc2Cl)nc(-c2c(C)noc2C)c1C [Example 241-3] |
| 5 to 10 µM | CNCC(O)COc1ccc(Cl)c(-c2nc(NC3CCOCC3)c(C)c(-c3c(CO)noc3C)n2)c1 (stereo not shown) [Example 273-3] |
| < 5 µM | CNC[C@@H](O)COc1ccc(Cl)c(-c2nc(-c3c(C)noc3C)c(C)c(N3CCC4(CC3)CN(C3CC3)C4)n2)c1 [Example 158-3] |
| < 5 µM | CNC[C@@H](O)COc1ccc(Cl)c(-c2nc(N[C@@H]3CO[C@H](C)C3)c(C)c(-c3c(C)noc3C)n2)c1 [Example 179-3] |

Source: patent US10633389B2, “CARM1 inhibitors and uses thereof” (Epizyme, Inc., priority 2013, dated 2020)
